Experimental data taken from ChEMBL document CHEMBL1201861, “Genomics of Drug Sensitity in Cancer screening data, Wellcome Trust Sanger Institute”.

Assays:
Assay type in all cases: functional, cell-based
[1] = test system: D-542MG; assay: cells; settings: Homo sapiens
Description: SANGER: Inhibition of human D-542MG cell growth in a cell viability assay.

[2] = test system: NCI-H2087; assay: cells; settings: Homo sapiens;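 also: growth inhibition determined with a cell viability readout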
Description: SANGER: Inhibition of human NCI-H2087 cell growth in a cell viability assay.

[3] = test system: MKN-28; assay: cells; settings: Homo sapiens;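 also: cell viability assay read-out, IC50 reflects suppression of growth of human MKN-28 cells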
Description: SANGER: Inhibition of human MKN28 cell growth in a cell viability assay.

[4] = test system: MFE-280; assay: cells; settings: Homo sapiens;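 also: growth inhibition of MFE-280 cells, determined with a cell viability readout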
Description: SANGER: Inhibition of human MFE-280 cell growth in a cell viability assay.

[5] = test system: 639-V; assay: cells; settings: Homo sapiens;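 also: growth inhibition of 639-V cells, read out with a cell viability assay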
Description: SANGER: Inhibition of human 639-V cell growth in a cell viability assay.

[6] = test system: KP-N-YN; assay: cells; settings: Homo sapiens;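 also: growth inhibition of KP-N-YN cells, read out with a cell viability assay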
Description: SANGER: Inhibition of human KP-N-YN cell growth in a cell viability assay.

[7] = test system: SW-620; assay: cells; settings: Homo sapiens;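 also: growth inhibition of human SW-620 cells, measured by a cell viability assay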
Description: SANGER: Inhibition of human SW620 cell growth in a cell viability assay.

[8] = test system: NCI-H292; assay: cells; settings: Homo sapiens;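 also: growth inhibition of NCI-H292 cells, read out with a cell viability assay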
Description: SANGER: Inhibition of human NCI-H292 cell growth in a cell viability assay.

[9] = test system: UACC-62; assay: cells; settings: Homo sapiens;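 also: growth inhibition of human UACC-62 cells, read out by a cell viability assay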
Description: SANGER: Inhibition of human UACC-62 cell growth in a cell viability assay.

[10] = test system: TYK-nu; assay: cells; settings: Homo sapiens;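 also: growth inhibition of human TYK-nu cells, read out by a cell viability assay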
Description: SANGER: Inhibition of human TYK-nu cell growth in a cell viability assay.

[11] = test system: NCI-H810; assay: cells; settings: Homo sapiens;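 also: IC50 reflects inhibition of cancer cell line growth, read out with a cell viability assay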
Description: SANGER: Inhibition of human NCI-H810 cell growth in a cell viability assay.

[12] = test system: LoVo; assay: cells; settings: Homo sapiens;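 also: growth inhibition of human LoVo cells, read out with a cell viability assay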
Description: SANGER: Inhibition of human LoVo cell growth in a cell viability assay.

[13] = test system: NCI-H2122; assay: cells; settings: Homo sapiens;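 also: growth inhibition of the cells, read out with a cell viability assay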
Description: SANGER: Inhibition of human NCI-H2122 cell growth in a cell viability assay.

[14] = test system: RT-112; assay: cells; settings: Homo sapiens
Description: SANGER: Inhibition of human RT-112 cell growth in a cell viability assay.

[15] = test system: NCI-H358; assay: cells; settings: Homo sapiens;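 also: growth inhibition of NCI-H358 human cells, read out with a cell viability assay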
Description: SANGER: Inhibition of human NCI-H358 cell growth in a cell viability assay.

[16] = test system: NCI-H1437; assay: cells; settings: Homo sapiens;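 also: growth inhibition of human NCI-H1437 cells, read out by a cell viability assay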
Description: SANGER: Inhibition of human NCI-H1437 cell growth in a cell viability assay.

[17] = test system: D-336MG; assay: cells; settings: Homo sapiens
Description: SANGER: Inhibition of human D-336MG cell growth in a cell viability assay.

[18] = test system: MDA-MB-361; assay: cells; settings: Homo sapiens
[19] = test system: ME-180; assay: cells; settings: Homo sapiens;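 also: cell viability assay measuring growth inhibition of ME-180 cells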
Description: SANGER: Inhibition of human ME-180 cell growth in a cell viability assay.

[20] = test system: HPAF-II; assay: cells; settings: Homo sapiens;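 also: growth inhibition of HPAF-II cells, read out with a cell viability assay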
Description: SANGER: Inhibition of human HPAF-II cell growth in a cell viability assay.

[21] = test system: HT55; assay: cells; settings: Homo sapiens;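 also: cell viability readout measuring growth inhibition of human HT55 cells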
Description: SANGER: Inhibition of human HT55 cell growth in a cell viability assay.

[22] = test system: RD; assay: cells; settings: Homo sapiens
Description: SANGER: Inhibition of human RD cell growth in a cell viability assay.

[23] = test system: ABC-1; assay: cells; settings: Homo sapiens;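 also: growth inhibition of human ABC-1 cells, read out by a cell viability assay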
Description: SANGER: Inhibition of human ABC-1 cell growth in a cell viability assay.

[24] = test system: Calu-3; assay: cells; settings: Homo sapiens;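 also: growth inhibition of human Calu-3 cells, determined with a cell viability assay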
Description: SANGER: Inhibition of human Calu-3 cell growth in a cell viability assay.

[25] = test system: NCI-H2452; assay: cells; settings: Homo sapiens;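 also: growth inhibition of NCI-H2452 cells, read out with a cell viability assay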
Description: SANGER: Inhibition of human NCI-H2452 cell growth in a cell viability assay.

[26] = test system: EFO-27; assay: cells; settings: Homo sapiens;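 also: growth inhibition of EFO-27 cells, read out with a cell viability assay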
Description: SANGER: Inhibition of human EFO-27 cell growth in a cell viability assay.

[27] = test system: HCC1395; assay: cells; settings: Homo sapiens;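 also: growth inhibition of HCC1395 cells, read out by a cell viability assay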
Description: SANGER: Inhibition of human HCC1395 cell growth in a cell viability assay.

[28] = test system: BEN; assay: cells; settings: Homo sapiens;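 also: growth inhibition of the BEN cell line, read out with a cell viability assay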
Description: SANGER: Inhibition of human BEN cell growth in a cell viability assay.

[29] = test system: PC-14; assay: cells; settings: Homo sapiens;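 also: cell viability assay measuring inhibition of PC-14 cell growth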
Description: SANGER: Inhibition of human PC-14 cell growth in a cell viability assay.

[30] = test system: A 172; assay: cells; settings: Homo sapiens;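 also: growth inhibition of A172 cells, measured with a cell viability readout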
Description: SANGER: Inhibition of human A172 cell growth in a cell viability assay.

[31] = test system: SW837; assay: cells; settings: Homo sapiens;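 also: growth inhibition of SW837 cells, determined with a cell viability assay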
Description: SANGER: Inhibition of human SW837 cell growth in a cell viability assay.

[32] = test system: AGS; assay: cells; settings: Homo sapiens;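 also: growth inhibition of AGS cells, determined with a cell viability assay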
Description: SANGER: Inhibition of human AGS cell growth in a cell viability assay.

[33] = test system: SW948; assay: cells; settings: Homo sapiens;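 also: growth inhibition of SW948 cells, read out with a cell viability assay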
Description: SANGER: Inhibition of human SW948 cell growth in a cell viability assay.

[34] = test system: SK-LU-1; assay: cells; settings: Homo sapiens;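 also: cell viability assay measuring growth inhibition of human SK-LU-1 cells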
Description: SANGER: Inhibition of human SK-LU-1 cell growth in a cell viability assay.

[35] = test system: RPMI-7951; assay: cells; settings: Homo sapiens
Description: SANGER: Inhibition of human RPMI-7951 cell growth in a cell viability assay.

[36] = test system: BFTC-909; assay: cells; settings: Homo sapiens
Description: SANGER: Inhibition of human BFTC-909 cell growth in a cell viability assay.

[37] = test system: Ca9-22; assay: cells; settings: Homo sapiens;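 also: growth inhibition of Ca9-22 cells, read out with a cell viability assay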
Description: SANGER: Inhibition of human Ca9-22 cell growth in a cell viability assay.

[38] = test system: LCLC-103H cell line; assay: cells; settings: Homo sapiens
Description: SANGER: Inhibition of human LCLC-103H cell growth in a cell viability assay.

[39] = test system: 8505C; assay: cells; settings: Homo sapiens
Description: SANGER: Inhibition of human 8505C cell growth in a cell viability assay.

[40] = test system: HO-1-N-1; assay: cells; settings: Homo sapiens;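 also: growth inhibition of human HO-1-N-1 cells, read out with a cell viability assay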
Description: SANGER: Inhibition of human HO-1-N-1 cell growth in a cell viability assay.

[41] = test system: KYSE-180; assay: cells; settings: Homo sapiens;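 also: growth inhibition of KYSE-180 cells, read out with a cell viability assay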
Description: SANGER: Inhibition of human KYSE-180 cell growth in a cell viability assay.

[42] = test system: OE33; assay: cells; settings: Homo sapiens;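 also: growth inhibition of human OE33 cells, measured by a cell viability assay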
Description: SANGER: Inhibition of human OE33 cell growth in a cell viability assay.

[43] = test system: D-392MG; assay: cells; settings: Homo sapiens
[44] = test system: 5637; assay: cells; settings: Homo sapiens
Description: SANGER: Inhibition of human 5637 cell growth in a cell viability assay.

[45] = test system: BT-20; assay: cells; settings: Homo sapiens;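 also: cell viability assay measuring suppression of growth in human BT-20 cells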
Description: SANGER: Inhibition of human BT-20 cell growth in a cell viability assay.

[46] = test system: NCI-H1703; assay: cells; settings: Homo sapiens;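 also: growth inhibition of NCI-H1703 cells, read out via a cell viability assay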
Description: SANGER: Inhibition of human NCI-H1703 cell growth in a cell viability assay.

[47] = test system: MDA-MB-415; assay: cells; settings: Homo sapiens
[48] = test system: SCC-4; assay: cells; settings: Homo sapiens;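 also: growth inhibition of human SCC-4 cells, read out as cell viability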
Description: SANGER: Inhibition of human SCC-4 cell growth in a cell viability assay.

[49] = test system: NB17; assay: cells; settings: Homo sapiens;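 also: growth inhibition of NB17 cells, read out with a cell viability assay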
Description: SANGER: Inhibition of human NB17 cell growth in a cell viability assay.

[50] = test system: SF-295; assay: cells; settings: Homo sapiens;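 also: growth inhibition of SF-295 cells, read out with a cell viability assay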
Description: SANGER: Inhibition of human SF295 cell growth in a cell viability assay.

[51] = test system: KYSE-70 cell line; assay: cells; settings: Homo sapiens;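 also: cell viability assay read-out, with IC50 expressing suppression of KYSE-70 cell growth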
Description: SANGER: Inhibition of human KYSE-70 cell growth in a cell viability assay.

[52] = test system: NCI-H1755; assay: cells; settings: Homo sapiens;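 also: cell viability readout used to measure growth inhibition of NCI-H1755 cells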
Description: SANGER: Inhibition of human NCI-H1755 cell growth in a cell viability assay.

[53] = test system: SW1463; assay: cells; settings: Homo sapiens;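 also: growth inhibition of SW1463 cells, determined with a cell viability assay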
Description: SANGER: Inhibition of human SW1463 cell growth in a cell viability assay.

[54] = test system: KARPAS-422; assay: cells; settings: Homo sapiens
Description: SANGER: Inhibition of human KARPAS-422 cell growth in a cell viability assay.

[55] = test system: LU-165; assay: cells; settings: Homo sapiens
Description: SANGER: Inhibition of human LU-165 cell growth in a cell viability assay.

[56] = test system: MONO-MAC-6; assay: cells; settings: Homo sapiens;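 also: cell viability assay measuring growth inhibition of human MONO-MAC-6 cells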
Description: SANGER: Inhibition of human MONO-MAC-6 cell growth in a cell viability assay.

[57] = test system: SUP-T1; assay: cells; settings: Homo sapiens;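 also: growth inhibition of human SUP-T1 cells, read out as cell viability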
Description: SANGER: Inhibition of human SUP-T1 cell growth in a cell viability assay.

[58] = test system: LP-1; assay: cells; settings: Homo sapiens;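 also: growth inhibition of human LP-1 cells, with the read-out taken from a cell viability assay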
Description: SANGER: Inhibition of human LP-1 cell growth in a cell viability assay.

[59] = test system: SU-DHL-1; assay: SANGER: Inhibition of human SU-DHL-1 cell growth in a cell viability assay.
[60] = test system: NCI-H719; assay: cells; settings: Homo sapiens;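 also: growth inhibition of the cultured cell line, read out with a viability assay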
Description: SANGER: Inhibition of human NCI-H719 cell growth in a cell viability assay.

[61] = test system: NCI-H1963; assay: cells; settings: Homo sapiens;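 also: cell growth inhibition of the human line, determined with a cell viability assay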
Description: SANGER: Inhibition of human NCI-H1963 cell growth in a cell viability assay.

[62] = test system: IMR-5; assay: cells; settings: Homo sapiens;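 also: growth inhibition of human IMR-5 cells, read out with a cell viability assay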
Description: SANGER: Inhibition of human IMR-5 cell growth in a cell viability assay.

[63] = test system: IM-9; assay: SANGER: Inhibition of human IM-9 cell growth in a cell viability assay.

## Cn1cc(/C=C2\C(=O)Nc3cccnc32)c2ccccc21
[1]
  IC50: > 2 µM
[2]
  IC50: > 2 µM
[3]
  IC50: > 2 µM
[4]
  IC50: > 2 µM
[5]
  IC50: > 2 µM
[6]
  IC50: > 2 µM
[7]
  IC50: > 2 µM
[8]
  IC50: > 2 µM
[9]
  IC50: > 2 µM
[10]
  IC50: > 2 µM
[11]
  IC50: > 2 µM
[12]
  IC50: > 2 µM
[13]
  IC50: > 2 µM
[14]
  IC50: > 2 µM
[15]
  IC50: > 2 µM
[16]
  IC50: > 2 µM
[17]
  IC50: > 2 µM
[18]
  IC50: > 2 µM
[19]
  IC50: > 2 µM
[20]
  IC50: > 2 µM
[21]
  IC50: > 2 µM
[22]
  IC50: > 2 µM
[23]
  IC50: > 2 µM
[24]
  IC50: > 2 µM
[25]
  IC50: > 2 µM
[26]
  IC50: > 2 µM
[27]
  IC50: > 2 µM
[28]
  IC50: > 2 µM
[29]
  IC50: > 2 µM
[30]
  IC50: > 2 µM
[31]
  IC50: > 2 µM
[32]
  IC50: > 2 µM
[33]
  IC50: > 2 µM
[34]
  IC50: > 2 µM
[35]
  IC50: > 2 µM
[36]
  IC50: > 2 µM
[37]
  IC50: > 2 µM
[38]
  IC50: > 2 µM
[39]
  IC50: > 2 µM
[40]
  IC50: > 2 µM
[41]
  IC50: > 2 µM
[42]
  IC50: > 2 µM
[43]
  IC50: > 2 µM
[44]
  IC50: > 2 µM
[45]
  IC50: > 2 µM
[46]
  IC50: 0.299 µM
[47]
  IC50: > 2 µM
[48]
  IC50: > 2 µM
[49]
  IC50: > 2 µM
[50]
  IC50: > 2 µM
[51]
  IC50: > 2 µM
[52]
  IC50: > 2 µM
[53]
  IC50: > 2 µM

## Cc1ccc(NC(=O)c2cccc(C(C)(C)C#N)c2)cc1Nc1ccc2ncn(C)c(=O)c2c1
[54]
  IC50: > 4 µM
[1]
  IC50: > 4 µM
[55]
  IC50: > 4 µM
[56]
  IC50: > 4 µM
[57]
  IC50: 1.74 µM
[17]
  IC50: > 4 µM
[58]
  IC50: > 4 µM
[59]
  IC50: 3.53 µM
[60]
  IC50: > 4 µM
[61]
  IC50: > 4 µM
[62]
  IC50: > 4 µM
[43]
  IC50: 0.356 µM
[63]
  IC50: > 4 µM
[49]
  IC50: > 4 µM

## NC(=O)c1ncn([C@@H]2O[C@H](COP(=O)(O)O)[C@@H](O)[C@H]2O)c1N
[2]
  IC50: > 2000 µM
[3]
  IC50: > 2000 µM
[4]
  IC50: > 2000 µM
[5]
  IC50: > 2000 µM
[6]
  IC50: > 2000 µM
[7]
  IC50: > 2000 µM
[8]
  IC50: > 2000 µM
[9]
  IC50: > 2000 µM
[10]
  IC50: > 2000 µM
[11]
  IC50: > 2000 µM
[12]
  IC50: > 2000 µM
[13]
  IC50: 507 µM
[14]
  IC50: 1870 µM
[15]
  IC50: > 2000 µM
[16]
  IC50: 599 µM
[18]
  IC50: 1310 µM
[19]
  IC50: 416 µM
[20]
  IC50: > 2000 µM
[21]
  IC50: > 2000 µM
[22]
  IC50: > 2000 µM
[23]
  IC50: > 2000 µM
[24]
  IC50: 1920 µM
[25]
  IC50: > 2000 µM
[26]
  IC50: 1680 µM
[27]
  IC50: > 2000 µM
[28]
  IC50: > 2000 µM
[29]
  IC50: 379 µM
[30]
  IC50: > 2000 µM
[31]
  IC50: > 2000 µM
[32]
  IC50: > 2000 µM
[33]
  IC50: > 2000 µM
[34]
  IC50: 1700 µM
[35]
  IC50: 1580 µM
[36]
  IC50: > 2000 µM
[37]
  IC50: 1260 µM
[38]
  IC50: 1370 µM
[39]
  IC50: > 2000 µM
[40]
  IC50: 793 µM
[41]
  IC50: 453 µM
[42]
  IC50: 1330 µM
[43]
  IC50: > 2000 µM
[44]
  IC50: > 2000 µM
[45]
  IC50: 1400 µM
[46]
  IC50: > 2000 µM
[47]
  IC50: 655 µM
[48]
  IC50: 1230 µM
[49]
  IC50: > 2000 µM
[51]
  IC50: > 2000 µM
[52]
  IC50: 1840 µM
[53]
  IC50: > 2000 µM

## COc1cc(Nc2c(C#N)cnc3cc(OCCCN4CCN(C)CC4)c(OC)cc23)c(Cl)cc1Cl [BOSUTINIB]
[1]
  IC50: > 2 µM
[2]
  IC50: > 2 µM
[3]
  IC50: > 2 µM
[4]
  IC50: > 2 µM
[5]
  IC50: > 2 µM
[6]
  IC50: > 2 µM
[7]
  IC50: > 2 µM
[8]
  IC50: 0.441 µM
[9]
  IC50: > 2 µM
[10]
  IC50: > 2 µM
[11]
  IC50: > 2 µM
[12]
  IC50: 1.98 µM
[13]
  IC50: > 2 µM
[14]
  IC50: > 2 µM
[15]
  IC50: > 2 µM
[16]
  IC50: > 2 µM
[17]
  IC50: > 2 µM
[18]
  IC50: > 2 µM
[19]
  IC50: > 2 µM
[20]
  IC50: > 2 µM
[21]
  IC50: > 2 µM
[22]
  IC50: > 2 µM
[23]
  IC50: > 2 µM
[24]
  IC50: > 2 µM
[25]
  IC50: > 2 µM
[26]
  IC50: 1.69 µM
[27]
  IC50: > 2 µM
[28]
  IC50: > 2 µM
[29]
  IC50: 1.29 µM
[30]
  IC50: > 2 µM
[31]
  IC50: > 2 µM
[32]
  IC50: > 2 µM
[33]
  IC50: > 2 µM
[34]
  IC50: > 2 µM
[35]
  IC50: > 2 µM
[36]
  IC50: > 2 µM
[37]
  IC50: 1.56 µM
[38]
  IC50: > 2 µM
[39]
  IC50: > 2 µM
[40]
  IC50: 1.26 µM
[41]
  IC50: > 2 µM
[42]
  IC50: > 2 µM
[43]
  IC50: > 2 µM
[44]
  IC50: 1.14 µM
[45]
  IC50: > 2 µM
[46]
  IC50: > 2 µM
[47]
  IC50: > 2 µM
[48]
  IC50: > 2 µM
[49]
  IC50: > 2 µM
[50]
  IC50: > 2 µM
[51]
  IC50: > 2 µM
[52]
  IC50: > 2 µM
[53]
  IC50: > 2 µM

## CC[C@@]1(O)C(=O)OCc2c1cc1n(c2=O)Cc2cc3ccccc3nc2-1 [CAMPTOTHECIN]
[2]
  IC50: 0.00507 µM
[3]
  IC50: 0.0512 µM
[4]
  IC50: 0.0216 µM
[5]
  IC50: 0.000171 µM
[7]
  IC50: 0.00408 µM
[8]
  IC50: 0.00224 µM
[9]
  IC50: 0.031 µM
[10]
  IC50: 0.00494 µM
[11]
  IC50: 0.0503 µM
[12]
  IC50: 0.0149 µM
[13]
  IC50: 0.013 µM
[14]
  IC50: 0.0149 µM
[16]
  IC50: 0.0349 µM
[17]
  IC50: 0.0052 µM
[18]
  IC50: 0.0344 µM
[19]
  IC50: 0.00269 µM
[20]
  IC50: 0.0551 µM
[22]
  IC50: 0.0157 µM
[23]
  IC50: 0.00347 µM
[24]
  IC50: 0.0328 µM
[25]
  IC50: 0.0909 µM
[26]
  IC50: 0.081 µM
[27]
  IC50: > 0.1 µM
[29]
  IC50: 0.0136 µM
[30]
  IC50: 0.0128 µM
[31]
  IC50: 0.0489 µM
[32]
  IC50: 0.0161 µM
[34]
  IC50: 0.00471 µM
[35]
  IC50: 0.00475 µM
[36]
  IC50: 0.00692 µM
[37]
  IC50: 0.00221 µM
[38]
  IC50: 0.0205 µM
[39]
  IC50: 0.0033 µM
[40]
  IC50: 0.000838 µM
[41]
  IC50: 0.0132 µM
[42]
  IC50: 0.0256 µM
[43]
  IC50: 0.0177 µM
[44]
  IC50: 0.00418 µM
[45]
  IC50: 0.026 µM
[46]
  IC50: 0.00651 µM
[48]
  IC50: 0.0193 µM
[49]
  IC50: 0.00218 µM
[50]
  IC50: 0.00791 µM
[51]
  IC50: 0.0921 µM
[53]
  IC50: 0.0517 µM
